# Key:
# [1] = tested on: Class 1 resistant cell lines; assay: Endogenous gene transcriptional assay (real-time PCR of androgen responsive genes); type: cell-based, human
# Protocol: Total RNA was isolated using the Aurum™ total RNA isolation kit (BIO-RAD, Hercules, Calif.). RNA (1 μg) was reverse transcribed using the iScript cDNA synthesis kit (BIO-RAD, Hercules, Calif.) to produce cDNA. Real-time PCR was performed using the Applied Biosystems 7900HT instrument and SYBR Green PCR Master Mix (Applied Biosystems, Foster City, Calif.). PCR reactions were performed in 6 μL according to the manufacturer's protocol and a thermocycle protocol of 95° C. for 10 minutes followed by 40 cycles of 95° C. for 15 seconds and 58° C. for 1 minute. Androgen responsive gene (PSA, SLUG, TMPRSS2, STEAP4, FKBP5, ORM1, NOV, FASN, NKX3.1, AMIGO2, BDNF, CAMK2N1, HPGD, NCAPD3, PLD1) expression was normalized to GAPDH expression and expressed relative to vehicle treatment of the parental cell line.
# [2] = tested on: LNCaP/AR(cs) cells; assay: as above; type: cell-based, human;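 as to ORM1 expression, agonist transcription: LNCaP/AR(cs) cells without added R1881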;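 as to PLD1 expression, agonist transcription: LNCaP/AR(cs) cells without added R1881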;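 as to PSA expression, agonist transcription: LNCaP/AR(cs) cells without added R1881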;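 as to SLUG expression, agonist transcription: LNCaP/AR(cs) cells without added R1881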;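 as to TMPRSS2 expression, agonist transcription: LNCaP/AR(cs) cells without added R1881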
# [3] = Table 4A, 1 nM R1881 or 30 μM compound, vehicle=1.00
compound,measurement,setting,value
"CNC(=O)c1ccc(N2C(=S)N(c3ccc(C#N)c(C(F)(F)F)c3)C(=O)C2(C)C)cc1F [Enzalutamide, enzalutamide]","Transcriptional activity on endogenous androgen-responsive genes, Class 1 resistant cells",[1],weak transcriptional agonist
same,"AMIGO2 expression, antagonist transcription","[2]; +1 nM R1881, 0.3 μM",0.49
same,"BDNF expression, antagonist transcription","[2]; +1 nM R1881, 0.3 μM",0.61
same,"CAM2KN1 expression, antagonist transcription","[2]; +1 nM R1881, 0.3 μM",0.04
same,"FASN expression, antagonist transcription","[2]; +1 nM R1881, 0.3 μM",1.30
same,"FKBP5 expression, antagonist transcription","[2]; +1 nM R1881, 0.3 μM",23.51
same,"HPGD expression, antagonist transcription","[2]; +1 nM R1881, 0.3 μM",99.16
same,"NCAPD3 expression, antagonist transcription","[2]; +1 nM R1881, 0.3 μM",23.74
same,"NKX3.1 expression, antagonist transcription","[2]; +1 nM R1881, 0.3 μM",7.70
same,"NOV expression, antagonist transcription","[2]; +1 nM R1881, 0.3 μM",0.11
same,"PLD1 expression, antagonist transcription","[2]; +1 nM R1881, 0.3 μM",0.02
same,"PSA expression, antagonist transcription","[2]; +1 nM R1881, 0.3 μM",22.76
same,"SLUG expression, antagonist transcription","[2]; +1 nM R1881, 0.3 μM",50.08
same,"STEAP4 expression, antagonist transcription","[2]; +1 nM R1881, 0.3 μM",585.81
same,"TMPRSS2 expression, antagonist transcription","[2]; +1 nM R1881, 0.3 μM",19.88
same,"AMIGO2 expression, antagonist transcription","[2]; +1 nM R1881, 1 μM",0.19
same,"BDNF expression, antagonist transcription","[2]; +1 nM R1881, 1 μM",0.28
same,"CAM2KN1 expression, antagonist transcription","[2]; +1 nM R1881, 1 μM",0.06
same,"FASN expression, antagonist transcription","[2]; +1 nM R1881, 1 μM",0.42
same,"FKBP5 expression, antagonist transcription","[2]; +1 nM R1881, 1 μM",5.64
same,"HPGD expression, antagonist transcription","[2]; +1 nM R1881, 1 μM",16.30
same,"NCAPD3 expression, antagonist transcription","[2]; +1 nM R1881, 1 μM",4.35
same,"NKX3.1 expression, antagonist transcription","[2]; +1 nM R1881, 1 μM",3.77
same,"NOV expression, antagonist transcription","[2]; +1 nM R1881, 1 μM",0.14
same,"PLD1 expression, antagonist transcription","[2]; +1 nM R1881, 1 μM",0.02
same,"PSA expression, antagonist transcription","[2]; +1 nM R1881, 1 μM",8.82
same,"SLUG expression, antagonist transcription","[2]; +1 nM R1881, 1 μM",10.20
same,"STEAP4 expression, antagonist transcription","[2]; +1 nM R1881, 1 μM",109.37
same,"TMPRSS2 expression, antagonist transcription","[2]; +1 nM R1881, 1 μM",7.72
same,"AMIGO2 expression, antagonist transcription","[2]; +1 nM R1881, 3 μM",0.48
same,"BDNF expression, antagonist transcription","[2]; +1 nM R1881, 3 μM",0.63
same,"CAM2KN1 expression, antagonist transcription","[2]; +1 nM R1881, 3 μM",0.27
same,"FASN expression, antagonist transcription","[2]; +1 nM R1881, 3 μM",0.71
same,"FKBP5 expression, antagonist transcription","[2]; +1 nM R1881, 3 μM",3.32
same,"HPGD expression, antagonist transcription","[2]; +1 nM R1881, 3 μM",13.19
same,"NCAPD3 expression, antagonist transcription","[2]; +1 nM R1881, 3 μM",3.14
same,"NKX3.1 expression, antagonist transcription","[2]; +1 nM R1881, 3 μM",6.72
same,"NOV expression, antagonist transcription","[2]; +1 nM R1881, 3 μM",0.61
same,"ORM1 expression, antagonist transcription","[2]; +1 nM R1881, 3 μM",257.85
same,"PLD1 expression, antagonist transcription","[2]; +1 nM R1881, 3 μM",0.13
same,"PSA expression, antagonist transcription","[2]; +1 nM R1881, 3 μM",11.75
same,"SLUG expression, antagonist transcription","[2]; +1 nM R1881, 3 μM",10.56
same,"STEAP4 expression, antagonist transcription","[2]; +1 nM R1881, 3 μM",74.44
same,"TMPRSS2 expression, antagonist transcription","[2]; +1 nM R1881, 3 μM",10.51
same,"AMIGO2 expression, antagonist transcription","[2]; +1 nM R1881, 10 μM",0.78
same,"BDNF expression, antagonist transcription","[2]; +1 nM R1881, 10 μM",0.99
same,"CAM2KN1 expression, antagonist transcription","[2]; +1 nM R1881, 10 μM",0.50
same,"FASN expression, antagonist transcription","[2]; +1 nM R1881, 10 μM",0.46
same,"FKBP5 expression, antagonist transcription","[2]; +1 nM R1881, 10 μM",1.41
same,"NKX3.1 expression, antagonist transcription","[2]; +1 nM R1881, 10 μM",4.70
same,"NOV expression, antagonist transcription","[2]; +1 nM R1881, 10 μM",1.00
same,"ORM1 expression, antagonist transcription","[2]; +1 nM R1881, 10 μM",43.91
same,"PLD1 expression, antagonist transcription","[2]; +1 nM R1881, 10 μM",0.42
same,"PSA expression, antagonist transcription","[2]; +1 nM R1881, 10 μM",6.59
same,"SLUG expression, antagonist transcription","[2]; +1 nM R1881, 10 μM",5.26
same,"STEAP4 expression, antagonist transcription","[2]; +1 nM R1881, 10 μM",13.61
same,"TMPRSS2 expression, antagonist transcription","[2]; +1 nM R1881, 10 μM",3.58
same,"AMIGO2 expression, antagonist transcription","[2]; +1 nM R1881, 30 μM",0.92
same,"BDNF expression, antagonist transcription","[2]; +1 nM R1881, 30 μM",1.12
same,"CAM2KN1 expression, antagonist transcription","[2]; +1 nM R1881, 30 μM",0.56
same,"FASN expression, antagonist transcription","[2]; +1 nM R1881, 30 μM",0.59
same,"FKBP5 expression, antagonist transcription","[2]; +1 nM R1881, 30 μM",1.50
same,"HPGD expression, antagonist transcription","[2]; +1 nM R1881, 30 μM",4.25
same,"NKX3.1 expression, antagonist transcription","[2]; +1 nM R1881, 30 μM",5.03
same,"NOV expression, antagonist transcription","[2]; +1 nM R1881, 30 μM",0.92
same,"ORM1 expression, antagonist transcription","[2]; +1 nM R1881, 30 μM",22.70
same,"PLD1 expression, antagonist transcription","[2]; +1 nM R1881, 30 μM",0.54
same,"PSA expression, antagonist transcription","[2]; +1 nM R1881, 30 μM",5.65
same,"SLUG expression, antagonist transcription","[2]; +1 nM R1881, 30 μM",5.22
same,"STEAP4 expression, antagonist transcription","[2]; +1 nM R1881, 30 μM",7.79
same,"TMPRSS2 expression, antagonist transcription","[2]; +1 nM R1881, 30 μM",4.62
same,FASN gene expression,[2]; [3],1.19
same,FKBP5 gene expression,[2]; [3],1.71
same,HPGD gene expression,[2]; [3],2.01
same,NKX3.1 gene expression,[2]; [3],2.51
same,ORM1 gene expression,[2]; [3],3.58
same,PLD1 gene expression,[2]; [3],0.65
same,PSA gene expression,[2]; [3],2.69
same,SLUG gene expression,[2]; [3],2.06
same,TMPRSS2 gene expression,[2]; [3],2.36
same,"AMIGO2 expression, agonist transcription","[2]; −R1881, 0.3 μM",0.68
same,"CAM2KN1 expression, agonist transcription","[2]; −R1881, 0.3 μM",0.80
same,"FASN expression, agonist transcription","[2]; −R1881, 0.3 μM",0.47
same,"FKBP5 expression, agonist transcription","[2]; −R1881, 0.3 μM",0.91
same,"HPGD expression, agonist transcription","[2]; −R1881, 0.3 μM",0.74
same,"NCAPD3 expression, agonist transcription","[2]; −R1881, 0.3 μM",0.66
same,"NKX3.1 expression, agonist transcription","[2]; −R1881, 0.3 μM",0.71
same,"NOV expression, agonist transcription","[2]; −R1881, 0.3 μM",1.12
same,"ORM1 expression, agonist transcription","[2]; −R1881, 0.3 μM",0.92
same,"PLD1 expression, agonist transcription","[2]; −R1881, 0.3 μM",0.77
same,"PSA expression, agonist transcription","[2]; −R1881, 0.3 μM",0.42
same,"SLUG expression, agonist transcription","[2]; −R1881, 0.3 μM",0.53
same,"STEAP4 expression, agonist transcription","[2]; −R1881, 0.3 μM",0.75
same,"TMPRSS2 expression, agonist transcription","[2]; −R1881, 0.3 μM",0.75
same,"AMIGO2 expression, agonist transcription","[2]; −R1881, 1 μM",0.61
same,"BDNF expression, agonist transcription","[2]; −R1881, 1 μM",0.92
same,"CAM2KN1 expression, agonist transcription","[2]; −R1881, 1 μM",0.70
same,"FASN expression, agonist transcription","[2]; −R1881, 1 μM",0.32
same,"FKBP5 expression, agonist transcription","[2]; −R1881, 1 μM",0.62
same,"HPGD expression, agonist transcription","[2]; −R1881, 1 μM",0.57
same,"NCAPD3 expression, agonist transcription","[2]; −R1881, 1 μM",0.57
same,"NKX3.1 expression, agonist transcription","[2]; −R1881, 1 μM",0.52
same,"NOV expression, agonist transcription","[2]; −R1881, 1 μM",0.91
same,"ORM1 expression, agonist transcription","[2]; −R1881, 1 μM",0.90
same,"PLD1 expression, agonist transcription","[2]; −R1881, 1 μM",0.62
same,"PSA expression, agonist transcription","[2]; −R1881, 1 μM",0.32
same,"SLUG expression, agonist transcription","[2]; −R1881, 1 μM",0.55
same,"STEAP4 expression, agonist transcription","[2]; −R1881, 1 μM",0.73
same,"TMPRSS2 expression, agonist transcription","[2]; −R1881, 1 μM",0.53
same,"AMIGO2 expression, agonist transcription","[2]; −R1881, 3 μM",0.62
same,"BDNF expression, agonist transcription","[2]; −R1881, 3 μM",0.88
same,"CAM2KN1 expression, agonist transcription","[2]; −R1881, 3 μM",0.71
same,"FASN expression, agonist transcription","[2]; −R1881, 3 μM",0.29
same,"FKBP5 expression, agonist transcription","[2]; −R1881, 3 μM",0.75
same,"HPGD expression, agonist transcription","[2]; −R1881, 3 μM",0.61
same,"NCAPD3 expression, agonist transcription","[2]; −R1881, 3 μM",0.47
same,"NKX3.1 expression, agonist transcription","[2]; −R1881, 3 μM",0.51
same,"NOV expression, agonist transcription","[2]; −R1881, 3 μM",0.80
same,"ORM1 expression, agonist transcription","[2]; −R1881, 3 μM",1.06
same,"PLD1 expression, agonist transcription","[2]; −R1881, 3 μM",0.63
same,"PSA expression, agonist transcription","[2]; −R1881, 3 μM",0.38
same,"SLUG expression, agonist transcription","[2]; −R1881, 3 μM",0.31
same,"STEAP4 expression, agonist transcription","[2]; −R1881, 3 μM",0.52
same,"TMPRSS2 expression, agonist transcription","[2]; −R1881, 3 μM",0.63
same,"AMIGO2 expression, agonist transcription","[2]; −R1881, 10 μM",0.66
same,"BDNF expression, agonist transcription","[2]; −R1881, 10 μM",0.95
same,"CAM2KN1 expression, agonist transcription","[2]; −R1881, 10 μM",0.64
same,"FASN expression, agonist transcription","[2]; −R1881, 10 μM",0.31
same,"FKBP5 expression, agonist transcription","[2]; −R1881, 10 μM",0.61
same,"HPGD expression, agonist transcription","[2]; −R1881, 10 μM",0.63
same,"NCAPD3 expression, agonist transcription","[2]; −R1881, 10 μM",0.56
same,"NKX3.1 expression, agonist transcription","[2]; −R1881, 10 μM",0.86
same,"ORM1 expression, agonist transcription","[2]; −R1881, 10 μM",0.71
same,"PLD1 expression, agonist transcription","[2]; −R1881, 10 μM",0.56
same,"PSA expression, agonist transcription","[2]; −R1881, 10 μM",0.74
same,"SLUG expression, agonist transcription","[2]; −R1881, 10 μM",0.51
same,"STEAP4 expression, agonist transcription","[2]; −R1881, 10 μM",1.16
same,"TMPRSS2 expression, agonist transcription","[2]; −R1881, 10 μM",0.89
same,"CAM2KN1 expression, agonist transcription","[2]; −R1881, 30 μM",0.64
same,"FKBP5 expression, agonist transcription","[2]; −R1881, 30 μM",0.85
same,"NCAPD3 expression, agonist transcription","[2]; −R1881, 30 μM",0.79
same,"NKX3.1 expression, agonist transcription","[2]; −R1881, 30 μM",1.63
same,"ORM1 expression, agonist transcription","[2]; −R1881, 30 μM",2.02
same,"PLD1 expression, agonist transcription","[2]; −R1881, 30 μM",0.56
same,"PSA expression, agonist transcription","[2]; −R1881, 30 μM",1.60
same,"SLUG expression, agonist transcription","[2]; −R1881, 30 μM",0.91
same,"TMPRSS2 expression, agonist transcription","[2]; −R1881, 30 μM",1.45
